The text below walks through data of patent US12721857B2 (priority 2021, dated 2026).

The conditions of data set [1]: oral exposure, within 24-96 hours of ingestion; cited from earlier work.
Data set [2] has as its target acetylcholinesterase (AChE) (Homo sapiens, UniProt P22303). Briefly: In vitro acetylcholinesterase activity assay. The data set is classed as biochemical. As to the method:
In the AChE assay, a reaction mixture containing DCB was incubated at 20° C. in the dark for 10 min, and 10 μL of AChE solution was then added. For measuring in vitro AChE activity, the test solutions contained DCB at various concentrations, including 5, 25, 50, 100, 200, and 400 µg/mL (FIGS. 13A and 13B). After AChE was added, the reaction mixture was incubated at 20° C. for 10 min, and the absorbance was measured at 405 nm.

In data set [3] the test system is Staphylococcus haemolyticus. As to the kind of experiment: Agar disk diffusion on urine cultures, Staphylococcus haemolyticus. The class given is cell-based. The text has this: (§1) Agar disk diffusion testing was used for antimicrobial susceptibility testing. The test provides qualitative results by categorizing susceptible, intermediate or resistant bacteria. Agar disk diffusion testing cannot distinguish bactericidal and bacteriostatic effects. Moreover, the agar disk-diffusion method is not appropriate to determine the minimum inhibitory concentration (MIC), as it is impossible to quantify the amount of the antimicrobial agent diffused into the agar medium. The advantages of this method, mainly simplicity and low cost, have contributed to its common use for the antimicrobial screening of plant extracts, essential oils, and other drugs.
(§2) The study has been performed on 47 urine samples collected from patients diagnosed with urinary tract infection (UTI), before instituting any type of therapy. Several types of pathogens were identified from the urine cultures performed: Escherichia coli-34 cases; Klebsiella pneumoniae-six cases; Proteus mirabilis-one case; Staphylococcus haemolyticus-one case; Enterococcus faecalis-two cases; Candida albicans-three cases. The susceptibility testing of the pathogens has been performed using DCB-impregnated microdisks to identify the optimal value that induces a significant inhibition of microbial culture development, compared to certified antibiotic/antifungal microdisks. The antibiogram/antifungal was performed on the Müller-Hinton (MH)/Sabouraud medium, and the results obtained using DCB-impregnated microdisks are presented in the Table 7, compared to the action of the reference microdisks.
On the technique in general: Agar diffusion results depend on both activity and mobility in agar.

A further data set relates to Enterococcus faecalis. Briefly: Agar disk diffusion on urine cultures, Enterococcus faecalis. The data set is classed as cell-based.
Text: as §1, §2

The test system of a further data set is Escherichia coli. As to the kind of experiment: Agar disk diffusion on urine cultures, Escherichia coli. The data set is classed as cell-based.
Text: as §1, §2

A further data set deals with Klebsiella pneumoniae. As to the kind of experiment: Agar disk diffusion on urine cultures, Klebsiella pneumoniae. The class given is cell-based.
Text: as §1, §2

A further data set has as its system Proteus mirabilis. Briefly: Agar disk diffusion on urine cultures, Proteus mirabilis. The data set is classed as cell-based.
Text: as §1, §2

Data set [4] is classed as in vitro ADME. The text has this: FIG. 11 is the in vitro simulation of DCB digestion: stomach (gastric phase, at pH 1.2 and pH 4.5) and duodenum (small intestinal phase, at pH 7.2). (DCB: Chlorogenoborate diester complex);
DCB is protected from acids or/and enzymes in the stomach and small intestine. Chlorogenic acids are, generally, resistant to acid environment and digestive enzymes. […] The DCB complex is dissociated in the colon by borate group transfer to cis-diol sugars, e.g., fructose and sialic acid, in bacteria in the microbiome in the gut mucus membrane. The sugar/borate complexes have a high association constant. […] At a gastric pH of 1.2, DCB undergoes about 50% degradation. When there is food in the stomach, after a meal, the stomach pH can raise to as high as 4-5. Under conditions prevailing after a meal (pH 4.5), DCB undergoes <6% degradation. Under conditions prevailing in the intestines (pH 7.2), DCB undergoes <4% degradation. Thus, when administered with a meal, DCB is protected in the gastrointestinal tract and works as a classical prebiotic. Alternatively, DCB may be administered in a dosage form with an enteric coating which is stable and protects DCB from stomach acids, but which dissolves or breaks down at pH values in the intestines. Suitable enteric polymers include methyl (meth)acrylate-(meth)acrylic acid copolymers, cellulose acetate phthalate (CAP), cellulose acetate succinate, hydroxypropyl methyl cellulose phthalate, hydroxypropyl methyl cellulose acetate succinate, polyvinyl acetate phthalate, and similar polymers.

A short description of the next data set: DPPH scavenging assay. The class given is biochemical.
For a further data set, the system named is Candida albicans. Briefly: Agar disk diffusion on urine cultures, Candida albicans. The class given is cell-based.
Text: as §1, §2

Data set [5] concerns pathogens identified from urine cultures of patients with urinary tract infection. As to the kind of experiment: Antibiotic/antifungal screening on urine cultures, all pathogens together. The class given is cell-based.
Text: as §1
as §2, with “The antibiogram/antifungal was performed on the Müller-Hinton (MH)/Sabouraud medium, and the results obtained using DCB-impregnated microdisks are presented in the Table 7, compared to the action of the reference microdisks.” left out

The next data set relates to L929 cells. The data set is classed as cell-based. Particulars: mouse, 24 h. The method, then: In vitro DCB cytotoxicity: The viability of L929 cells treated for 24 hours with different concentrations of DCB was tested by the 3-(4,5-dimethylthiazol-2-yl)-2,5-diphenyltetrazolium bromide (MTT) assay. The MTT assay is commonly used for cytotoxicity, viability, and cell proliferation studies. The treatment of cells with MTT allows the assessment of oxidative metabolism and cellular response to external factors that can have a positive or negative effect on cell survival in culture. This quantitative colorimetric method is based on the reduction of the yellow-colored compound MTT to a dark blue formazan. The reduction of MTT, achieved by mitochondrial enzymes, e.g., succinate dehydrogenase, is directly proportional to the number of viable cells, being an index of cellular/mitochondrial integrity. The optical density is evaluated spectrophotometrically, resulting in a direct relationship between absorbance, dye concentration, and the number of viable and metabolically active cells.
In multi-well plates, L929 cells were plated at a cell concentration of 10^4 cells/cm^2. MTT (1 mg/ml, in a culture medium without serum) and DCB was added to each well. […] The resulting solution was densitometered at 550 nm, there being a direct proportional relationship between the recorded optical density and the number of metabolically active cells.

Data set [6] can be described thus: In vivo DCB toxicity (acute, subchronic, chronic). Also noted: species or system mice. Particulars: both sexes, BALB/c, mouse, in vivo, po; acute, p.o. administration in mice; read-out: median lethal dose (LD50). As to the method: (§3) In vivo DCB toxicity: The laboratory animals and the experimental protocol for determining acute, subchronic and chronic toxicity were established in accordance with the Organization for Economic Co-operation and Development (OECD) Guidelines for Testing of Chemicals. The toxicodynamic experiment was performed on groups of 10 BALB/c mice, eight weeks old, with an average weight of 25 g, the number of females and males being equally distributed (five for each group), which were administered different doses of DCB, at various intervals, as follows: • (i) for the acute experiment (at 24 hours): • (a) per os (p.o.), by oral gavage, five different doses of DCB in distilled water: 5 mg/kg body weight (b.w.), 50 mg/kg b.w., 300 mg/kg b.w., 2000 mg/kg b.w. and 5000 mg/kg b.w.; • (b) intra-peritoneal (i.p), a single dose of DCB, in saline: 50 mg/kg b.w.; • (ii) for the subacute experiment (lasting 28 days), three different daily doses of DCB in drinking water: 50 mg/kg b.w., 300 mg/kg b.w. and 1000 mg/kg b.w.; • (iii) for the chronic experiment (lasting 90 days), three different daily doses of DCB in drinking water: 50 mg/kg b.w., 300 mg/kg b.w. and 1000 mg/kg b.w. Throughout the duration of the experiment, the condition of the animals was monitored daily, at the same hour every day (during morning). Also, the animals were maintained in standard conditions of temperature, humidity, and lighting. Food and water were administered ad libitum. Standard Conditions Include: • A 14-hour light/10-hour dark cycle or 12 light/12 dark cycle; • A temperature of 65-75° F. (~18-23° C.); and • A humidity of 40-60%.
(§4) The control mice were monitored and maintained under the same conditions, only that instead of the DCB they received: • (i) for the acute experiment: (a) distilled water, p.o., by oral gavage and (b) saline, i.p., respectively; • (ii) for the subacute experiment and for the chronic one: only the drinking water normally consumed. […]

The test system of another data set is BALB/c mice. As to the kind of experiment: In vivo DCB toxicity (acute, subchronic, chronic). The method, then: as §3, §4

Where two headings read alike, the source gives them in different places. Some results are limits rather than exact numbers.

Sequence of acetylcholinesterase (AChE) (P22303 32-614, species assumed): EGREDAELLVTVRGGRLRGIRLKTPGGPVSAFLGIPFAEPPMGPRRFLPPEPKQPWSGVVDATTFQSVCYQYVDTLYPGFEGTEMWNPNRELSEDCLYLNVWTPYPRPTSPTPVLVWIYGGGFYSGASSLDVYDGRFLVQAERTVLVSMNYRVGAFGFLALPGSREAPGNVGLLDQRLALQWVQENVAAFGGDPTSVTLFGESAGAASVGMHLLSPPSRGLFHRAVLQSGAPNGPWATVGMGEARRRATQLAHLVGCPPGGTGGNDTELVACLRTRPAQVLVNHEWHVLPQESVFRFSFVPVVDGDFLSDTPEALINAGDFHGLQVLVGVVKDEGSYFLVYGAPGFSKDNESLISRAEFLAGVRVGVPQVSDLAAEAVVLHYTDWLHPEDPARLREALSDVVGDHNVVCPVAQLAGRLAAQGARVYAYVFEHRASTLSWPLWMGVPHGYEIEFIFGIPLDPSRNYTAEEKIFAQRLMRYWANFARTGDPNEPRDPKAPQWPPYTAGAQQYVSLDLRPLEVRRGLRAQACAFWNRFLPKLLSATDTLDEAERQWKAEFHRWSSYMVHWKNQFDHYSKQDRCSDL

In the case of `OB(O)O` [BA, Boric acid], the BA absorbed in data set [1] was 81-95%.
In the case of `O=C(/C=C/c1ccc(O)c(O)c1)O[C@@H]1C[C@](O)(C(=O)O)C[C@@H](O)[C@H]1O` [CA, Chlorogenic acid, reference compound], the IC50 (usually the midpoint of a concentration-inhibition curve) in [2] is 243 µM. The inhibition – broadly, the share of the control response that was lost under treatment – at 110 µg/mL in data set [2] (read-out: inhibition of AChE activity) was > 80%.
Consider `CO[C@@]1(NC(=O)Cc2cccs2)C(=O)N2C(C(=O)O)=C(COC(N)=O)CS[C@@H]21` [Cefoxitin, reference compound], for which the “Inhibition diameter (Ø, mm] of microbial culture” value (shortened to “Inhibition diameter”) is listed as 25 mm in data set [3] (certified microdisk) and 23-26 mm in the data set with Enterococcus faecalis (certified microdisk).
Turning to `O=C(O)c1cn(C2CC2)c2cc(N3CCNCC3)c(F)cc2c1=O` [Ciprofloxacin, reference compound], the results for the “Inhibition diameter” value with Escherichia coli (certified microdisk), with Klebsiella pneumoniae (certified microdisk) and in the data set with Proteus mirabilis (certified microdisk) were 28-35 mm, 27-34 mm and 33 mm, respectively.
Consider `O=C(/C=C/c1ccc2c(c1)O[B-]1(O2)Oc2ccc(/C=C/C(=O)O[C@@H]3C[C@](O)(C(=O)O)C[C@@H](O)[C@H]3O)cc2O1)O[C@H]1C[C@@](O)(C(=O)O)C[C@H](O)[C@@H]1O` (stereo partly shown) [DCB, diester chlorogenoborate], for which the degradation entry in data set [4] (pH 1.2) was “about 50%”; in [4] (pH 4.5), < 6%; in data set [4] (pH 7.2) it was < 4%. In addition, in the data set “DPPH scavenging assay”, the “antioxidant activity relative to CA” value is given as “approximately six times more antioxidant activity than CA”. The same compound had an IC50 in data set [2] of 39.5 µM. In addition, in data set [2], the “factor of AChE inhibition relative to CA” value is on record as “about 3.4”. Moreover, the “Inhibition diameter” value is given as 0 mm with Escherichia coli (0.025 μM DCB microdisk); 6-8 mm in the data set on Escherichia coli (2.5 μM DCB microdisk); 8-14 mm with Escherichia coli (5.0 μM DCB microdisk); 29-37 mm in the data set with Escherichia coli (50 μM DCB microdisk); 0 mm in the data set with Klebsiella pneumoniae (0.025 μM DCB microdisk); 5-7 mm in the data set on Klebsiella pneumoniae (2.5 μM DCB microdisk). The “Inhibition diameter” value in the data set on Klebsiella pneumoniae (5.0 μM DCB microdisk) is given as 8-15 mm; in the data set on Klebsiella pneumoniae (50 μM DCB microdisk), 28-36 mm; in the data set on Proteus mirabilis (0.025 μM DCB microdisk), 0 mm; in the data set on Proteus mirabilis (2.5 μM DCB microdisk) it was 0 mm; in the data set with Proteus mirabilis (5.0 μM DCB microdisk), 15 mm; in the data set with Proteus mirabilis (50 μM DCB microdisk) it was 35 mm. Further, the “Inhibition diameter” value in [3] (0.025 μM DCB microdisk) is 0 mm; in data set [3] (2.5 μM DCB microdisk) it was 0 mm; in data set [3] (5.0 μM DCB microdisk), 11 mm; in [3] (50 μM DCB microdisk) it was 27 mm; with Enterococcus faecalis (0.025 μM DCB microdisk) it was 0 mm; in the data set on Enterococcus faecalis (2.5 μM DCB microdisk), 0 mm. For the same compound, the “Inhibition diameter” value is reported as 12-14 mm in the data set on Enterococcus faecalis (5.0 μM DCB microdisk); 26-29 mm in the data set on Enterococcus faecalis (50 μM DCB microdisk); 0 mm in the data set on Candida albicans (0.025 μM DCB microdisk); 0 mm in the data set on Candida albicans (2.5 μM DCB microdisk); 12-18 mm in the data set with Candida albicans (5.0 μM DCB microdisk); 37-40 mm with Candida albicans (50 μM DCB microdisk). Also, the “antimicrobial activity compared with certified microdisks” value in data set [5] (50 μM DCB-impregnated microdisks) is on record as “comparable to, or superior to, that of the certified microdisks”. In addition, the “influence on the growing pathogens” value in data set [5] (0.025 to 2.5 μM DCB) is listed as “little or no influence on the growing pathogens”. For the same compound, the “impact on cell viability compared with 5% aqueous DMSO control” value with L929 cells was “much less impact on MTT concentration, and thus cell viability, than a negative control treated with 5% aqueous DMSO”. Moreover, in data set [6], the median lethal dose (LD50) (as a rule, the dose expected to kill half of the subjects tested) at 24 h was > 5000 mg/kg. For the same compound, the “histopathology of internal organs” value in the data set on BALB/c mice (acute (24 hours), subchronic (28 days) and chronic (90 days) experiments) is “normal aspects were highlighted for all internal organs analyzed”. In the data set with BALB/c mice (p.o. administration in mice), the “acute toxicity class (OECD)” value is given as “Category V, practically non-toxic”. For the same compound, the pKa (commonly the pH at which an ionisable group is half protonated) in “physchem” was ~4.
On to `OC(Cn1cncn1)(Cn1cncn1)c1ccc(F)cc1F` [Fluconazole, reference compound], for which the “Inhibition diameter” value with Candida albicans (certified microdisk) is 29-33 mm.
